Test system: SH13 H7N9 virus
Parameters: species or system mice
Details: mouse, in vivo

poly IC
protection from lethal SH13 H7N9 challenge: did not provide any benefit over the vaccine alone

Source: US20220362153A1, “COMPOSITIONS AND METHODS FOR PULMONARY SURFACTANT-BIOMIMETIC NANOPARTICLES” (priority 2019, published 2022)
